Data reported in the METLIN SMRT retention time set (Domingo-Almenara et al. 2019).

Experiment: gradient 5% acetonitrile 3 min, to 50% in 2 min, to 85% in 15 min, held 3 min, 100 µL/min
Settings: column: Zorbax Extend-C18 2.1 x 50 mm; eluents: water / acetonitrile, 0.1% formic acid
How it was run: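 Retention times of pure standards were taken from adduct peaks that were selected by computer and manually inspected. Over 3 months, mixtures of ~100 molecules were run by HPLC–quadrupole time-of-flight mass spectrometry in positive and negative ionization mode. The Zorbax Extend-C18 column (2.1 × 50 mm, 1.8 μm) ran at 100 μL/min in water and acetonitrile, each containing 0.1% formic acid, with 40 μL dead volume and 900 μL dwell volume.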

SMILES	RP-LC retention time [s]
CC1CN(C(=O)Cn2cc(SCC(=O)NC3CCCCC3)c3ccccc32)CC(C)O1 (stereo not drawn)	879
CC1=C(c2cccc(Cl)c2)S(=O)(=O)N=C1N1CCC(NC(=O)c2ccoc2)CC1	799
O=C1CCN(Cc2ccc(F)cc2F)CCOCCN1	561
COc1cccc(-c2ccc(=O)n(Cc3nc(-c4cccc(Br)c4)no3)n2)c1	1110
COc1ccc(-c2noc(N3CCC(Cc4ccccc4)CC3)n2)cc1OC	1240
COc1ccccc1-c1nc(C2CC(=O)N(c3ccccc3)C2)no1 (stereo not drawn)	894
CC(=O)Nc1ccc(NC(=O)C2CCCN(S(=O)(=O)c3cc(-c4noc(C)n4)cs3)C2)cc1 (stereo not drawn)	744
CC(C)(C)c1ccc(-c2nc(N3CCOCC3)c3ccccc3n2)cc1	821
CCS(=O)(=O)c1nc2ccc(NS(=O)(=O)c3ccc(C(C)C)cc3)cc2s1	975
CCc1cccc(NC(=O)Cn2nc(N3CCCC3)c3ccccc3c2=O)c1	1000
O=C(NCCCN1CCOCC1)c1c(O)c2cccc3c2n(c1=O)CC3	845
CCCCn1c(=O)c2ccccc2n(Cc2nc(-c3ccc(OC(F)(F)F)cc3)no2)c1=O	1280
Cn1ncc2c3ccccc3n(CC(=O)NCCc3c[nH]c4ccc(Cl)cc34)c2c1=O	860
COc1ccc(S(=O)(=O)Cc2nc(-c3cccc(C(F)(F)F)c3)no2)cc1	1060
COc1ccc(-c2cc3nn(CC(=O)N4CCOCC4)c(=O)n3c(C)n2)cc1	717
CCC(C)NC(=O)Cn1c(=O)c2cnc(-c3ccc(C)cc3)nc2n(C)c1=O (stereo not drawn)	920
Cc1c(-c2nnc(C3CC3)o2)c(S(=O)(=O)N2CCN(C(C)C)CC2)c(C)n1C	610
Cc1ccc(NC(=O)N2CCCC(Cn3cnc4cccnc43)C2)cc1 (stereo not drawn)	667
Cc1oc(-c2[nH]ncc2C(=O)N2CCCC2)cc1S(=O)(=O)Nc1ccc(F)c(F)c1	734
CCCCc1ccc(NC(=O)CSc2cc(N3CCN(c4ccccc4OC)CC3)ncn2)cc1	1310
COc1ccc(Cl)cc1NC(=O)N1CCc2nc[nH]c2C1	604
O=C(C1CCN(S(=O)(=O)c2cc(-c3noc(C4CCC4)n3)cs2)CC1)N1CCCCCC1	1050
Cc1ccc(N2CCN(c3nc(C(=O)O)cs3)CC2)cc1	770

SMILES	RP-LC retention time [s]
Cc1nnc2n1CCN(C(=O)c1ccc(OC(F)(F)F)cc1)C2	606
Cc1cccc(CNC(=O)C2CCN(S(=O)(=O)c3ccc4c(c3)NC(=O)CO4)CC2)c1	794
COc1ccc(NC(=O)N2CCC(N3CCN(Cc4ccccc4)C3=O)CC2)c(OC)c1	796
O=C(NCc1nnnn1-c1ccc(F)c(F)c1)c1cc(=O)c2ccccc2o1	707
CS(=O)(=O)N1CCC(C(=O)Nc2cccc(C(F)(F)F)c2)Oc2ccccc21 (stereo not drawn)	972
Cc1ccc(-n2cc(C3=CCN(CC(=O)NC4CCN(Cc5ccccc5)CC4)CC3)cn2)cc1	551
CCCNC(=O)C1CCCN(c2ccc(SCC(=O)Nc3cccc(C)c3)nn2)C1 (stereo not drawn)	674
CCCCn1cc(S(=O)(=O)NCc2cccc(F)c2)c2cccnc21	964
c1cc2nncn2nc1NC1CCCCC1	790
O=C(c1nnc(-c2ccc(S(=O)(=O)N3CCCCC3)cc2)o1)N1CCN(c2ccccc2F)CC1	1130
CCC(=O)N(C1CCOCC1)C1CCN(S(=O)(=O)c2ccc(C)cc2C)CC1	880
O=C(Cn1cccc(S(=O)(=O)N2CCCCCC2)c1=O)N1CCCc2ccccc21	850
O=C(Nc1ccc(-c2nc(-c3ccccc3)co2)cc1)c1ccc(Br)o1	1190
Nc1ccc(C(=O)Nc2ccc(Nc3ccncc3)cc2)cc1	602
CCN(CC)CCNC(=O)Cc1cc(-c2ccc(F)cc2F)on1	556
Cc1ccc2ncn(C3CCN(S(=O)(=O)c4ccc(F)cc4)CC3)c(=O)c2c1	896
COc1cccc(-c2cn3c(C(=O)Nc4ncccc4C)csc3n2)c1	732
CCn1cc(-c2nc(C)c(C(=O)NCc3ccc(F)cc3F)s2)c2cccnc21	969
CN1C(=O)c2cccnc2Sc2cc(NC(=O)c3ccncc3)ccc21	606
CCCN1C(=O)COc2ccc(-c3noc(COc4ccc(F)cc4)n3)cc21	1090
CCc1cc(=O)n(CC(=O)N(CC)c2ccccc2)c(N)n1	628
Cc1ccc(-c2nc(-c3ccc(-n4ccnc4)nc3)no2)cc1	794
O=C(CC1CCN(C(=O)NCCc2ccccc2)CC1)N1CCCCC1	759

SMILES	RP-LC retention time [s]
COc1c(C(=O)N2CCN(c3ccccc3F)CC2)sc2cccc(F)c12	1100
O=c1c2ccccc2nc2n1CCC2O (stereo not drawn)	567
Cn1ccc2cc(S(=O)(=O)N3CCC(C(=O)N4CCN(c5ncccn5)CC4)CC3)ccc21	821
CCn1ccc(C(=O)NC)n1	566
Cc1ccc(-n2nnc(C(=O)O)c2-c2ccccn2)cc1	670
CCCn1c(C)cnc1CC1CCN(S(=O)(=O)c2ccc3c(c2)CCC3)C1 (stereo not drawn)	730
O=C(Cn1ccc2sccc2c1=O)Nc1ccc(Cl)cc1	776
CCc1csc(-c2ccc(N3CCN(C(=O)c4ccc(F)c(F)c4)CC3)nc2)n1	955
Cc1nc2cccnc2n1C1CCN(C(=O)Nc2ccccc2Cl)CC1	635
CCOCC(=O)N1CC(c2nc(-c3cccnc3)no2)C2(CCOCC2)C1 (stereo not drawn)	622
Cc1ccc(-c2nc(-c3ccc4c(c3)oc(=O)n4C)no2)cc1F	609
CCOC(=O)c1c(C)[nH]c(C(=O)N2CCCC(C(=O)NCCCN3CCN(CC)CC3)C2)c1C (stereo not drawn)	579
CCN(CC)C(=O)c1cc(=O)n(CC(=O)NC2CCCC2)c2ccccc12	685
COc1cc(NC(=O)Cn2cccc2-c2nnc(C3CC3)o2)cc(OC)c1	802
COc1cccc(Nc2c(-c3ccc(Br)cc3)nc3cnccn23)c1	972
CCCNC(=O)N1CCC(c2cnn(-c3ccccc3)c2)CC1	779
CCC(CC)N1CCN(S(=O)(=O)c2cc(-c3[nH]ncc3C(=O)N(C)C)oc2C)CC1	577
COc1ccccc1NC(=O)N1CCC(c2nnc(-c3ccccc3OC)s2)CC1	825
Cc1ccc(NC(=O)N2CCC(n3cnnc3C3CC3)C2)cc1 (stereo not drawn)	635
CC(=O)N1CCc2cc(N3CC(C(=O)NCC4CCCO4)CC3=O)ccc21 (stereo not drawn)	590
Cc1cc(NCCCC(=O)NC2CC2)n2nc(-c3cccnc3)nc2n1	577
CCC(C)NC(=O)c1ccc2c(ccn2C)c1 (stereo not drawn)	779
